Measurements from patent US20180362487A1, “STEREOISOMER OF BROMADIOLONE, COMPOSITION AND RODENTICIDAL BAIT COMPRISING SAME, AND PROCESS FOR CONTROLLING TARGET RODENT PESTS” (priority 2015, published 2018).

Type: in vivo, "Sprague-Dawley" SD rats
Details: per os tube feeding, about 13 mg bromadiolone per kg (56% D1,2 / 44% D3,4), liver on D1, D3, D7, male and female rats, FIG. 2
Description: Separation of the configurational stereoisomers of bromadiolone is performed by high-pressure liquid chromatography (HPLC) on a LUX® Cellulose-1 chiral column (Phenomenex, Le Pecq, France) containing a chiral stationary phase constituted of particles of cellulose tris(3,5-dimethylphenyl carbamate), said particles having a mean size of 3 μm and having a mean pore size of 1000 Å. A mixture formed from acetonitrile (A) and water comprising 0.1% by volume of formic acid (B), with an A/B volume ratio of 80/20 and with a flow rate of 0.25 mL/minute in the chromatography column, is used as mobile phase. The concentration of the composition to be analysed is 1 μg of bromadiolone per millilitre of acetonitrile and the volume injected onto the column is 1 μL. Detection is performed by tandem mass spectrometry (MS/MS) in negative electrospray ionization (ESI) mode. The temperature of the nebulizer gas is 350° C. and its flow rate is 8 L/minute. The pressure of the nebulizer gas is brought to 2700 hPa. In particular, the MRM (“Multiple Reaction Monitoring”) transitions m/z 525.1→250.1 and m/z 525.1→181, corresponding to bromadiolone, are detected.
About 0.525 g (±0.025 g) of rat liver is weighed out accurately and placed in a 50 mL polypropylene tube. 10 mL of acetone are added and the suspension is homogenized using an Ultra-Turrax® homogenizer/disperser for a time of about 30 seconds. […]

Structure (SMILES) | persistence in the liver of the rats (hepatic concentration of the diastereoisomers)
O=c1oc2ccccc2c(O)c1C(CC(O)c1ccc(-c2ccc(Br)cc2)cc1)c1ccccc1 (single isomer, unassigned) [diastereoisomer D1,2] | longer persistence in the liver of the rats than the persistence of said diastereoisomer D3,4
O=c1oc2ccccc2c(O)c1C(CC(O)c1ccc(-c2ccc(Br)cc2)cc1)c1ccccc1 (single isomer, unassigned) [diastereoisomer D3,4] | less persistent in the liver of target rodents
